# Reference: article PMC11199504, “New hemisynthetic derivatives of sphaeropsidin phytotoxins triggering severe endoplasmic reticulum swelling in cancer cells” (Scientific Reports, 2024)
# Like-named read-outs stand apart in the source and are kept apart here.
# Assays:
# [1] = test system: A549, SKMEL-28, U373, MCF7, Hs683, B16F10; parameters: method as in doi:10.1016/j.phytol.2012.08.011; settings: mean over cell lines (MCF7 not available); read-out: IC50 determined by MTT assays, Mean; cited from earlier work
# B16F10 [2] = test system: B16F10; parameters: method as in doi:10.1016/j.phytol.2012.08.011; settings: 72 h treatment; read-out: IC50 determined by MTT assays, B16F10; cited from earlier work
# SKMEL-28 [3] = test system: SKMEL-28; parameters: method as in doi:10.1016/j.phytol.2012.08.011; settings: 72 h treatment; read-out: IC50 determined by MTT assays, SKMEL-28; cited from earlier work
# A549 [4] = test system: A549; parameters: method as in doi:10.1016/j.phytol.2012.08.011; settings: 72 h treatment; read-out: IC50 determined by MTT assays, A549; cited from earlier work
# U373 [5] = test system: U373; parameters: method as in doi:10.1016/j.phytol.2012.08.011; settings: 72 h treatment; read-out: IC50 determined by MTT assays, U373; cited from earlier work
# Hs683 [6] = test system: Hs683; parameters: method as in doi:10.1016/j.phytol.2012.08.011; settings: 72 h treatment; read-out: IC50 determined by MTT assays, Hs683; cited from earlier work
# RKO/P53wt = experiment: MTT assay, RKO/P53wt (parental sensitive); format: cell-based; settings: 72 h treatment; ± standard deviation; parental sensitive model; read-out: IC50 determined by MTT assays, RKO/P53wt
# Text: (§1) Cancer cell lines were obtained from either the European Collection of Cell Cultures (ECACC; Salisbury, UK) or the American Type Culture Collection (ATCC; Manassas, VA). The two glioma cell lines were the U373 (ECACC code 08061901) and Hs683 (ATCC HTB-138) cell lines. The carcinoma cell lines were the A549 non-small cell carcinoma cell line (ATCC code CCL 185) and the MCF-7 mammary breast carcinoma cell line (ATCC code HTB-22). The melanoma cell lines were the mouse B16F10 cells (ATCC code CRL-6475) and the human SKMEL-28 cells (ATCC code HTB-72). The ovarian cancer cell line A2780 and its cisplatin-resistant subline A2780cis were obtained from Sigma-Aldrich (St. Louis, MO, USA). Colon cancer HCT116 cells were obtained from ATCC (CCL-247) and the oxaliplatin-resistant subline HCT116/OxR established in the W. Berger lab[59]. The HeLa cell derivative KB-3-1 and the colchicine-selected, highly ABCB1-overexpressing subline KB-C-1 were generously donated by Dr. D. W. Shen, Bethesda, MD. RKOp53wt colon cancer cells together with the RKOp53KO (homozygous knock-out) subline[60] were generously provided by Dr. Vogelstein from John Hopkins University, Baltimore. The correct origin of all cell models was confirmed by STR during performance of the experiments. All cell lines were cultured in RPMI1640 culture medium supplemented with 10% heat-inactivated fetal bovine serum, 2% L-glutamine (0.6 mg/mL), 2% penicillin/streptomycin (200 IU/mL and 200 μg/mL) and 0.1 mg/mL gentamicin.
# (§2) The MTT (3-(4,5-dimethylthiazol-2-yl)-2,5-diphenyl tetrazolium bromide) colorimetric assay has been conducted as described previously. Briefly, cells were seeded 24 h before their treatment with each compound for a period of 72 h. The concentrations tested ranged from 10 nM to 100 µM. Each assay was conducted in sextuplicates. The number of independent experiments is mentioned in the legend of the tables.
# (§3) SI Table 1: IC50 determined by MTT assays. Mean concentration (± standard deviation) in µM required to
# (§4) reduce the viability of cells by 50% after a 72 h treatment relative to the control.
# (§5) Parental sensitive models Drug-resistant models
# Hct116/OxR = experiment: MTT assay, Hct116/OxR (oxaliplatin-resistant); format: cell-based; settings: Homo sapiens, HCT-116; 72 h treatment; ± standard deviation; drug-resistant model; read-out: IC50 determined by MTT assays, Hct116/OxR
# Text: as §1, §2, §3, §4, §5
# Drug-resistant models = experiment: MTT assay, mean of drug-resistant models; format: cell-based; settings: 72 h treatment; read-out: IC50 determined by MTT assays, mean of drug-resistant models
# Text: as §1, §2, §3, §4, §5
# MCF7 = experiment: MTT colorimetric assay, MCF7; format: cell-based; settings: Homo sapiens, 72 h treatment, mean ± SEM, sensitive to apoptosis, read-out: IC50 determined by MTT assays, MCF7
# Text: as §1, §2
# KB-C-1 = experiment: MTT assay, KB-C-1 (ABCB1-overexpressing); format: cell-based; settings: KBC-1; 72 h treatment; ± standard deviation; drug-resistant model; read-out: IC50 determined by MTT assays, KB-C-1
# Text: as §1, §2, §3, §4, §5
# RKO/p53ko = experiment: MTT assay, RKO/p53ko; format: cell-based; settings: 72 h treatment; ± standard deviation; drug-resistant model; read-out: IC50 determined by MTT assays, RKO/p53ko
# Text: as §1, §2, §3, §4, §5
# A2780R = experiment: MTT assay, A2780R (cisplatin-resistant); format: cell-based; settings: 72 h treatment; ± standard deviation; drug-resistant model; read-out: IC50 determined by MTT assays, A2780R
# Text: as §1, §2, §3, §4, §5
# KB-3-1 = experiment: MTT assay, KB-3-1 (parental sensitive); format: cell-based; settings: Homo sapiens, KB 3-1; 72 h treatment; ± standard deviation; parental sensitive model; read-out: IC50 determined by MTT assays, KB-3-1
# Text: as §1, §2, §3, §4, §5
# A549 [7] = experiment: MTT colorimetric assay, A549; format: cell-based; settings: Homo sapiens, 72 h treatment, mean ± SEM of six replicates of one experiment (1: 7, 13: 6 independent experiments), resistant to apoptosis, read-out: IC50 determined by MTT assays, A549
# Text: as §1, §2
# human TopIIa = target: T1, human TopIIa (Homo sapiens, UniProt P11388); experiment: Cell-free decatenation assay; format: biochemical; settings: at 500 µM, read-out: TopoIIa inhibition
# T1 construct: purchased TopoGen (Port Orange, FL, USA)
# T1 sequence (P11388 whole entry): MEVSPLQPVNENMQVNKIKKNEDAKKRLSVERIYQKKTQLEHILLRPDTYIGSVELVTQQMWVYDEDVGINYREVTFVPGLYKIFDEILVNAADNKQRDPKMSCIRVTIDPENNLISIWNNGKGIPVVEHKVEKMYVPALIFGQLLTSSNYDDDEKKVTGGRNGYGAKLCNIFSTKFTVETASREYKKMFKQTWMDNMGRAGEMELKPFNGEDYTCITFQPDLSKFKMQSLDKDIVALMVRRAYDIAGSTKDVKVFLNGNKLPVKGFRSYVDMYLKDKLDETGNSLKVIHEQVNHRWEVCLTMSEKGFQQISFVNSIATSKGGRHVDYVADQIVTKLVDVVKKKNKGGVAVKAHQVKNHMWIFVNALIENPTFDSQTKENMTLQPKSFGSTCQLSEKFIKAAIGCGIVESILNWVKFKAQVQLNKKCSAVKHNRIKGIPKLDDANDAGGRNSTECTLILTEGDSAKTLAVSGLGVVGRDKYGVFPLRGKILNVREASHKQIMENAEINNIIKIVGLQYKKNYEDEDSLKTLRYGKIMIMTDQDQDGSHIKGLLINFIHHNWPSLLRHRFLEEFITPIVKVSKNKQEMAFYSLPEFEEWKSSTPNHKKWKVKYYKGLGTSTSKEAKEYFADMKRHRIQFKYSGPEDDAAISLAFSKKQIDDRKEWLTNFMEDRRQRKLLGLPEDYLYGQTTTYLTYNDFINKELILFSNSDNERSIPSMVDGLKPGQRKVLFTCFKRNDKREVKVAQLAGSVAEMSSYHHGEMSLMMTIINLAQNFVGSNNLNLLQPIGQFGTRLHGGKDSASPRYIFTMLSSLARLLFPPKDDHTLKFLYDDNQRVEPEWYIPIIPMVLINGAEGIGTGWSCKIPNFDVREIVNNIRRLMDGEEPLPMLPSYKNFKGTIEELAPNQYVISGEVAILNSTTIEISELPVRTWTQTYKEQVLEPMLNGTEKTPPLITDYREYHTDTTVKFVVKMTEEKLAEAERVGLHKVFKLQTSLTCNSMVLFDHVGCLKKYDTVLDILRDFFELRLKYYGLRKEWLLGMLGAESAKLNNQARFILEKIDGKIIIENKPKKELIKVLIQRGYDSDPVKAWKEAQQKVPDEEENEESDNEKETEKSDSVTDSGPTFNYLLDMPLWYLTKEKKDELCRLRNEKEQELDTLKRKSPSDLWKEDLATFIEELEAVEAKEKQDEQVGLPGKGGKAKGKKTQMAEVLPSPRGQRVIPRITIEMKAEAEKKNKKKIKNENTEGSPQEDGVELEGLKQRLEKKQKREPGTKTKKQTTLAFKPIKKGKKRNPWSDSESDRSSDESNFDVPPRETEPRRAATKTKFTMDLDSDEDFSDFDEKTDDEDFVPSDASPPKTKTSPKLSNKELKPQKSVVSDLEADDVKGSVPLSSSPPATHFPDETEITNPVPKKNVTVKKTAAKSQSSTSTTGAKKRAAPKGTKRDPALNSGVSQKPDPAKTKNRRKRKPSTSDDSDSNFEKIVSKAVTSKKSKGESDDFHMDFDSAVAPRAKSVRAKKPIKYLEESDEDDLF
# Experimental: The topoisomerase (Top) activity assay kit, including kinetoplast DNA (kDNA and recombinant human TopIIa enzyme, was obtained from TopoGen (Port Orange, FL, USA), agarose from PeqLab (Erlangen, Germany), 50 × TAE buffer from Roth (Karlsruhe, Germany) and ethidium bromide solution (10 mg/mL) from Sigma-Aldrich (Taufkirchen, Germany). Decatenation assays were performed as described previously[62] with slight modifications according to the manufacturer’s protocol. 100 µM of the recently described dual topoisomerase poison P8-D6 served as a positive control, and 5% DMSO as a solvent control. Briefly, the compounds were dissolved in DMSO and diluted to 20× the concentration to be tested. 1 µL of the resulting stock solutions were mixed with 18 µL of a buffer containing 200 ng kDNA and 1 mM ATP. Subsequently, 1 µL of a 1u/µL dilution of TopIIa enzyme was added and incubated at 37 °C for 30 min. Afterwards, the reaction was stopped by addition of Stop buffer, and electrophoresis was carried out on a 1% agarose gel in TAE buffer. The gel was stained with 0.5 µg/mL ethidium bromide, washed with water, and fluorescence images were captured with the LAS4000 system (Fujifilm, Duesseldorf, Germany). All steps were carried out on ice.
# B16F10 [8] = experiment: MTT colorimetric assay, B16F10; format: cell-based; settings: Mus musculus, B16-F10; 72 h treatment; mean ± SEM; sensitive to apoptosis; read-out: IC50 determined by MTT assays, B16F10
# Text: as §1, §2
# [9] = test system: A549, SKMEL-28, U373, MCF7, Hs683, B16F10; experiment: MTT colorimetric assay, mean of the six cell lines; format: cell-based; settings: 72 h, mean over the six cell lines; 72 h treatment; read-out: IC50 determined by MTT assays, Mean
# Text: as §1, §2
# Hct116 = experiment: MTT assay, Hct116 (parental sensitive); format: cell-based; settings: Homo sapiens, HCT-116; 72 h treatment; ± standard deviation; parental sensitive model; read-out: IC50 determined by MTT assays, Hct116
# Text: as §1, §2, §3, §4, §5
# A2780 = experiment: MTT assay, A2780 (parental sensitive); format: cell-based; settings: Homo sapiens, A2780; 72 h treatment; ± standard deviation; parental sensitive model; read-out: IC50 determined by MTT assays, A2780
# Text: as §1, §2, §3, §4, §5
# U373 [10] = experiment: MTT colorimetric assay, U373; format: cell-based; settings: Homo sapiens, U373 MG; 72 h treatment; mean ± SEM; resistant to apoptosis; read-out: IC50 determined by MTT assays, U373
# Text: as §1, §2
# [11] = test system: Parental sensitive models; experiment: MTT assay, mean of parental sensitive models; format: cell-based; settings: 72 h treatment; read-out: IC50 determined by MTT assays, mean of parental sensitive models
# Text: as §1, §2, §3, §4, §5
# Hs683 [12] = experiment: MTT colorimetric assay, Hs683; format: cell-based; settings: Homo sapiens, Hs 683; 72 h treatment; mean ± SEM; sensitive to apoptosis; read-out: IC50 determined by MTT assays, Hs683
# Text: as §1, §2
# SKMEL-28 [13] = experiment: MTT colorimetric assay, SKMEL-28; format: cell-based; settings: Homo sapiens, SK-MEL-28; 72 h treatment; mean ± SEM; resistant to apoptosis; read-out: IC50 determined by MTT assays, SKMEL-28
# Text: as §1, §2
# [14] = test system: SK-MEL-28 human melanoma and U373 glioblastoma cells; experiment: ER swelling / vacuole origin (CellLight ER-GFP, brightfield, TEM); format: cell-based; settings: SK-MEL-28 and U373 cells
# Text: To decipher the origin of vacuoles, fluorescent probes staining different cellular compartments were used: the lysosomal Red DND-99 LysoTracker®, the glibenclamide Red ER tracker®, the green FM MitoTracker® that were all purchased from Lifes Technologies (Invitrogen, Belgium) and used according to manufacturer’s instructions. The CellLight ER-GFP (Thermofisher, Belgium) staining of the ER is based on the transfection of a plasmid coding for a fusion protein made of GFP fused to the ER signal sequence of calreticulin and the KDEL ER retention signal. Briefly, 6 × 10^4 cells were seeded on glass coverslips in 6 well plates. After a minimum of 24 h, cells were treated or not with the compounds of interest. Note that concentration and duration of the treatment were determined separately for each compound prior to the experiment on the basis of the apparition of marked morphological changes in phase contrast microscopy. Sixteen hours before the end of the experiment, 4 µL/well of the reagent were added to allow transfection and expression of the GFP-fused protein by the cells. Coverslips were then washed twice in PBS and mounted on slides without fixation step to take captions with the Axio.Imager.M2 microscope (Carl Zeiss, Belgium). To evaluate the cellular distribution of 13, the Axio.Imager.M2 was specifically equipped with an M340L4 excitation source (Thorlabs) and the pseudoconfocal Zeiss ZEN deconvolution system kindly provided for demo by Carl Zeiss (Belgium) to allow direct visualization of the compound 13 itself thanks to its intrinsic fluorescent properties.
# For TEM, cells were fixed with glutaraldehyde 2.5% (EM grade, Electron Microscopy Sciences, EMS) at 4 °C overnight, washed tree times in cacodylate buffer (pH 7.4) and postfixed 1 h at room temperature in 1% OsO4, (EMS), 1.5% potassium ferrocyanide (Sigma-Aldrich) in 0.15 M cacodylate buffer. This was immediately followed by a second incubation in 1% OsO4 for 1 h at room temperature. After washing in distilled water, samples were stained with 1% uranyl acetate (EMS) and serially dehydrated in increasing ethanol concentrations. Samples were then embedded in epoxy resin (Agar 100 resin, Agar Scientific Ltd) and left to polymerize for 2 days at 60 °C. Ultrathin sections (50–70 nm thick) were collected with a Leica UC6 ultra-microtome on formvar-carbon-coated copper grids and further stained with uranyl acetate and lead citrate by standard procedures. Observations were made on a Tecnai 10 transmission electron microscope (FEI) and images were captured with a Veleta camera and processed with SIS iTEM software (Olympus).
Structure (SMILES),IC50 (MCF7) [µM],IC50 (A549 [7]) [µM],IC50 (B16F10 [8]) [µM],IC50 [9] [µM],IC50 (U373 [10]) [µM],IC50 (Hs683 [12]) [µM],IC50 (SKMEL-28 [13]) [µM],ER swelling / ER-derived vacuolization [14],other results
C=CC1(C)C=C2C(=O)C3(OC(C)=O)OC(=O)C4(CCCC(C)(C)C34)C2(O)CC1 (stereo not shown) [Compound 2],–,–,–,–,–,–,–,–,IC50 [1]: 2.25 ± 0.48 µM; IC50 (B16F10 [2]): 1.56 ± 0.16 µM; IC50 (SKMEL-28 [3]): 2.68 ± 0.04 µM; IC50 (A549 [4]): 2.29 ± 0.13 µM; IC50 (U373 [5]): 0.95 ± 0.02 µM; IC50 (Hs683 [6]): 3.76 ± 0.04 µM
"C=C[C@]1(C)C=C2[C@@H](O)[C@@]3(O)OC(=O)[C@@]4(CCCC(C)(C)[C@H]34)[C@@]2(O)CC1 [Compound 15, sphaeropsidin B, reference compound]",84.5 ± 8.29,44.8 ± 0.54,41.7 ± 1.49,51.9 ± 7.19,37.8 ± 1.5,43.1 ± 1.07,59.3 ± 4.51,–,IC50 (RKO/P53wt): > 100 µM; IC50 (Hct116/OxR): > 100 µM; IC50 (Drug-resistant models): > 100 µM; IC50 (KB-C-1): > 100 µM; IC50 (RKO/p53ko): > 100 µM; IC50 (A2780R): > 100 µM; IC50 (KB-3-1): > 100 µM; inhibition at 500 µM (human TopIIa): ~50%; IC50 (Hct116): > 100 µM; IC50 (A2780): > 100 µM; IC50 [11]: > 100 µM
CC1(C=CCOCc2ccc3ccc4cccc5ccc2c3c45)C=C2C(=O)C3(O)OC(=O)C4(CCCC(C)(C)C34)C2(O)CC1 (stereo not shown) [Compound 25],2.71 ± 0.14,3.47 ± 3.28,3.28 ± 0.3,3.34 ± 0.16,3.93 ± 0.1,3.32 ± 0.23,3.32 ± 0.3,induction of ER-derived vacuolization,–
CC1(C=CCCOc2cccc3ccccc23)C=C2C(=O)C3(O)OC(=O)C4(CCCC(C)(C)C34)C2(O)CC1 (stereo not shown) [Compound 26],1.3 ± 0.11,2.05 ± 0.2,1.08 ± 0.14,2.14 ± 0.33,2.84 ± 0.12,3.1 ± 0.23,2.46 ± 0.08,induction of ER-derived vacuolization,–
